Assay [1] has as its system T1, 20S proteasome.
T1 construct: purified 20S proteasome from human erythrocytes; purchased Biotechne E-360-050; host or cells: human erythrocytes
Nature of the assay: Second confirmatory counter-screen of hits on the proteasome alone. The settings on record: counter-screen on 20S proteasome only, without REGγ. The assay is classed as biochemical, human. The procedure:
The 3 chemical libraries tested were obtained from the NIH : The Natural Products set (NP.V) consisting of 390 compounds, the Oncology Approved Drugs set (AOD.IX) consisting of 147 FDA-approved compounds and the Diversity set (DIV.VI) consisting of 1584 compounds. Libraries were prepared and screened with a Biomek FXP workstation in 384 well plates. Compounds activity was assessed using a fluorescence activity test of the proteasome using the Bz-VGR-AMC fluorogenic substrate (#BML-BW9375-0005, Enzo Life Sciences). 50µM of the fluorogenic substrate was used with 20µM of the tested compound, and 2nM of 20S human proteasome (#E-360-050, Biotechne) in presence or absence of 50nM of human REGγ (#E-384-MTO, Biotechne). After preparation of the mix, plates were incubated for 2h at 37°C before being read on a Spectramax i3 microplate reader from Molecular devices (Excitation wavelength : 345nm; Emission wavelength : 445nm). […]
Using the control condition without REGγ, they then eliminated compounds that were inhibiting the 20S proteasome, using the 95% interval of confidence of the 20S control for each plate. […] Fluorescence was measured every minute with a FLUOstar plate reader (BMG Labtech). […]
After conducting the screening and validating the quality control using a custom algorithm, they analyzed the data to select their hits. […]
For orientation: A counterscreen serves to expose hits that act by an unwanted route or on another target.

In assay [2] the target is 20S-REGy complex (Homo sapiens, UniProt P61289). Description: Peptide degradation assay with Fluorescamine (KH-52), with REGγ. The format is biochemical. The conditions noted are these: 20S-REGγ complex, 50 µM compound, 37°C. On the procedure: Degradation of the 52 amino acid peptide KH-52: […], Boulpicante et al.) by the 20S proteasome was followed by amino-acid group generation using Fluorescamine (#F9015, Sigma-Aldrich). The peptide substrate was incubated at 100µM with 25nM 20S, with or without 160nM REGγ and with different concentration of the tested compounds or DMSO. Assays were performed in 100µL in phosphate buffer (pH 6.8) and incubated at 37°C in a water bath for 8 hours. After 4, 6 and 8 hours, 22µL of sample were retrieved and added to 88µL of phosphate buffer before being stored at - 20°C prior to revelation. For the revelation, samples were thawed and filtered in a centrifuge 20min at 4°C 1kDa filters (#OD003C34, Pall Corporation). To avoid any amino group contamination, filtered were washed in phosphate buffer before use. 20µL of filtered-sample were plated in triplicates in a black 96-wells plate (#237108, Thermo Scientific) and 10µL of fluorescamine (1mg/mL, in 100% acetone) was added to the samples. The plate was placed on agitation for 1min before the reaction was stopped by adding 200µL of water to each well. The fluorescence intensity was measured using a FluoSTAR plate reader (BMG Labtech) with excitation wavelength at 355nm and emission wavelength at 460nm.
These findings were established through both in vitro degradation assays and T cell experiments. […]

For assay [3], the target named is REGγ (Homo sapiens, UniProt P61289). Description: Thermal Shift Assay (nanoDSF) with REGγ. The conditions noted are these: REGγ 500nM, compound at 40X (20µM, 0,4% DMSO). The assay is classed as binding. On the procedure:
Thermal shift assay was carried out with nano differential scanning fluorimetry (nanoDSF) using the Tycho NT.6 from Nanotemper and was performed at the I2BC platform (Gif-sur-Yvette). Samples were prepared in a final volume of 25µL in a 96-well plate prior to be loaded on the Tycho capillaries. Proteins were diluted in activity buffer (20mM Tris-HCl pH 7.4 and 20mM NaCl). After optimisation, REGγ concentration was set to 500nM and 20S concentration to 50nM. Compounds concentrations were determined as ratios to protein concentration and to stay below 0,5% of DMSO; accordingly, compounds with REGγ were tested at 40X (20µM, 0,4% DMSO) and at 100X (5µM, 0,1% DMSO) with 20S. A thermal ramp was applied from 20 to 95°C and fluorescence was followed at 350nm and 330 nm, measuring intrinsic fluorescence of the proteins from tryptophan and tyrosine residues. Binding was detected as a shift in the inflection temperature (Ti) compared to the DMSO control.
To assess the efficacy of molecule 58 in directly binding to REGγ, inventors conducted a thermal shift assay (TSA). TSA leverages the property of proteins to undergo unfolding at specific temperatures, and the interaction with a ligand can alter the thermal stability, leading to a shift in the unfolding temperature. In their study, inventors examined how the compound 58 interacted with REGγ and monitored the change in melting temperature (ΔTm).
On the technique in general: Differential scanning fluorimetry follows unfolding on heating by fluorescence.

REGγ, sequence (P61289 whole entry): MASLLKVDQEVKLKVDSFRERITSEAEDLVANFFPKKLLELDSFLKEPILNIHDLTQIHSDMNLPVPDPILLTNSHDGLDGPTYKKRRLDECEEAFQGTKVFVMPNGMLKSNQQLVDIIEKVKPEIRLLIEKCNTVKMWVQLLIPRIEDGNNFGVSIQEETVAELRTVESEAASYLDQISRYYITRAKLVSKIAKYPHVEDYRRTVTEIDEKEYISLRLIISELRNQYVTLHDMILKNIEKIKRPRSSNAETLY
20S-REGy complex, sequence (P61289 whole entry, one chain of several): as the sequence (P61289 whole entry) above

As for `Cc1ccc(N=Nc2ccc(C)cc2NC(=O)Nc2ccccc2F)cc1` [compound 58], the “inhibition of the 20S core alone” value in assay [1] was “without inhibiting the 20S core alone”. Besides, the “rate of peptide bond hydrolysis of KH-52” value in assay [2] was “notably decelerated the rate of peptide bond hydrolysis”. Also, in assay [3], the “change in melting temperature (ΔTm)” value is “substantial increase in ΔTm”.

Source of the values: patent EP4537820A1, “COMPOUND AND COMBINATIONS COMPRISING SAID COMPOUND TO IMPROVE IMMUNE RESPONSE” (Institut Gustave-Roussy, priority 2023, dated 2025).
